Results from patent US20200078379A1, “DEFEROXAMINE DERIVATIVES AS MEDICAMENTS” (BIOTECHNOLOGICKY USTAV AV CR, V.V.I., priority 2017, published 2020).
Read-outs that look alike come from different tables or passages of the source.

Columns and labels:
MCF7 cells [1] = test: OCR and ECAR, Seahorse instrument; type: cell-based, human; conditions: 1 hour incubation
Excerpt: Application of compound 2 leads to marked inhibition of cellular respiration as evidenced by two independent methods: the Oxygraph instrument (Rohlenova, K., Sachaphibulkij, K., Stursa, J., Bezawork-Geleta, A., Blecha, J., Endaya, B., Werner, L., Cerny, J., Zobalova, R., Goodwin, J., Spacek, T., Alizadeh, P. E., Yan, B., Nguyen, M. N., Vondrusova, M., Sobol, M., Jezek, P., Hozak, P., Truksa, J., Rohlena, J., Dong, L. F., & Neuzil, J. (2017) Selective Disruption of Respiratory Supercomplexes as a New Strategy to Suppress Her2high Breast Cancer. Antioxid. Redox. Signal., 26, 84-103) (Table 6) and Seahorse instrument (Table 7). For Seahorse analysis, 20.000 or 30.000 cells were seeded in 96 well plates and incubated with compound 2 for 1 hour. Afterwards, oxygen consumption rate (OCR) and extracellular acidification rate (ECAR) were measured in three cycles of 3 minutes preceded by 3 minutes of mixing, using a Seahorse XFe96 analyzer (Agilent). Results express the mean values of the three cycles.

MDA-MB-231 cells = test: AnnexinV/PI cell death assay; type: cell-based, human; conditions: 48 hrs
Method: To confirm such findings by an independent method, cell death-inducing potency (cytotoxic efficacy) of DFO and compound 2 have been tested via annexin V/PI staining commonly used as a measure of apoptotic/necrotic cell death. Briefly, cells were seeded in 12-well plate at 100,000 per well, incubated with the selected compounds for 48 hours, then floating cells were spun, adherent cells trypsinized and spun as well followed by the staining with AnnexinV-FITC and PI probes. Cells were then washed with PBS and measured via Fluorescence Activated Sorter.

MCF7 cells [2] = test: cellular proliferation in real time, Xcelligence technology; type: cell-based
Method: (§1) The ability of compound 2 to affect the proliferation and cell death induction in real time was monitored by the Xcelligence technology that detects changes in electrical impedance related to the cell number. In brief, special 16-well e-plates containing gold electrodes were filled with medium, blank values were recorded, and then 5.000 cells per well were seeded in the plate and let to attach for 2 hours, followed by the addition of compounds. The electrical impedance was then monitored over time in real-time every 15 minutes. In this case a line is drawn that reflects the cell number over time. […] We have seen a clear inhibition of proliferation with compound 2 at 1 μM, complete block of proliferation at 2 μM concentration, while the cytotoxic effect is seen at 5 μM (Table 9).

CFPAC-1 cells = test: crystal violet assay, cellular viability; type: cell-based; conditions: Homo sapiens, CFPAC-1, 48 hours
[3] = tested on: non malignant cells (BJ), human fibroblast; test: crystal violet assay, cellular viability; type: cell-based
Method: (§2) Compound 1 and compound 2 were tested in their efficacy to kill malignant MCF7 cancer cells. Briefly, 10.000 cells per well were seeded in a 96-well plat on one day and the next day selected compounds were added and incubated with the cells for 48 hrs. The cells were then fixed with 4% paraformaldehyde, stained with 0.05% crystal violet, washed with PBS, and solubilized in 1% SDS. The absorbance of the plate at 595 nm was then measured, quantifying the number of viable cells.
(§3) A number of compounds of the present invention were tested for cytotoxicity towards at least some of human breast cancer cell lines (MCF7, MDA-MB-231), human fibroblast (BJ) and murine triple negative breast cancer cell line 4T1 (Table 2).

[4] = tested on: murine triple negative breast cancer cell line 4T1; test: crystal violet assay, cellular viability; type: cell-based; conditions: Mus musculus, 4T1, 48 hours
Method: as §2, §3

T47D cells = test: crystal violet assay, cellular viability; type: cell-based; conditions: for IC50: Homo sapiens
BT474 cells = test: crystal violet assay, cellular viability; type: cell-based; conditions: for IC50: Homo sapiens, BT-474
non malignant cells (BJ) = test: cellular proliferation in real time, Xcelligence technology; type: cell-based, human
Method: as §1

[5] = tested on: murine triple negative breast cancer cells line 4T1; test: tumor growth in vivo, 4T1 model; set-up: species or system Balb/c gamma mice; conditions: for Relative tumor size: 4T1, 8 mg/kg i.p. twice per week
Method: In order to define the effect of compound 2 on tumor growth and progression in vivo, we tested its effect on the model of syngeneic murine triple negative breast cancer cells line 4T1, Balb/c gamma mice being the […] host. Mice were injected with 1 million of cells s.c. on the right flank. After appearance of tumors (15-60 mm^3) mice were randomized into two separate group, one receiving corn oil (control) and one receiving compound 2 at 8 mg/kg. Tumor progression was then monitored by ultrasound imaging Vevo770 and mice received the treatment twice per week, i.p. in approximately 100 ul of corn oil.

**Q.** What does the source list for CC(=O)N(O)CCCCCNC(=O)CCC(=O)N(O)CCCCCNC(=O)CCC(=O)N(O)CCCCCN(CCCCCCCCCC[P+](c1ccccc1)(c1ccccc1)c1ccccc1)CCCCCCCCCC[P+](c1ccccc1)(c1ccccc1)c1ccccc1.[Cl-].[Cl-] [Compound 2, Triphenyl(3,14,25-trihydroxy-2,10,13,21,24-pentaoxo-31-(10-(triphenylphosphonio)decyl)-3,9,14,20,25,31-hexaazahentetracontan-41-yl)phosphonium chloride]?
**A.** Oxygen consumption rate (OCR) (MCF7 cells [1]; MCF7, 5 μM): 15.4 pmol*min^−1 10.000 cells^−1; extracellular acidification rate (ECAR) (MCF7 cells [1]; MCF7, 5 μM): 9.69 mpH*min^−1 10.000 cells^−1; Oxygen consumption rate (OCR) (MCF7 cells [1]; MCF7, 10 μM): 9.6 pmol*min^−1 10.000 cells^−1; extracellular acidification rate (ECAR) (MCF7 cells [1]; MCF7, 10 μM): 8.2 mpH*min^−1 10.000 cells^−1; mean percentage of dead cells (AnnexinV/PI) (MDA-MB-231 cells; MDA-MB-231, 5 μM): 39.8%; mean percentage of dead cells (AnnexinV/PI) (MDA-MB-231 cells; MDA-MB-231, 10 μM): 78.5%; mean percentage of dead cells (AnnexinV/PI) (MDA-MB-231 cells; MDA-MB-231, 20 μM): 98.0%; slope of the line (relative number of cells in relation to time) (MCF7 cells [2]; MCF7, 0-15 h, 1 μM): 0.32; slope of the line (relative number of cells in relation to time) (MCF7 cells [2]; MCF7, 0-15 h, 2 μM): 0.40; slope of the line (relative number of cells in relation to time) (MCF7 cells [2]; MCF7, 0-15 h, 5 μM): 0.31; slope of the line (relative number of cells in relation to time) (MCF7 cells [2]; MCF7, 0-36 h, 1 μM): 0.35; slope of the line (relative number of cells in relation to time) (MCF7 cells [2]; MCF7, 0-36 h, 2 μM): −0.01; slope of the line (relative number of cells in relation to time) (MCF7 cells [2]; MCF7, 0-36 h, 5 μM): −0.47; concentration at which the cytotoxic effect is seen (MCF7 cells [2]; Xcelligence, MCF7): 5 µM; concentration with clear inhibition of proliferation (MCF7 cells [2]; Xcelligence, MCF7): 1 µM; concentration with complete block of proliferation (MCF7 cells [2]; Xcelligence, MCF7): 2 µM; IC50 (CFPAC-1 cells): 6.9 µM; Selectivity index (IC50 non-malignant/IC50 malignant) ([3]; BJ vs BJ (reference)): 1; IC50 ([3]; Homo sapiens, Fibroblast, BJ non malignant, 48 hours, crystal violet): 14.3 µM; IC50 [4]: 2 µM; Selectivity index (IC50 non-malignant/IC50 malignant) (T47D cells; BJ vs T47D, 48 hours): 4.77; IC50 (T47D cells; T47D Parental, read-out: IC50 crystal violet): 3 µM; IC50 (T47D cells; T47D, 48 hours, crystal violet, read-out: IC50 cellular viability): 3 µM; Selectivity index (IC50 non-malignant/IC50 malignant) (BT474 cells; BJ vs BT474, 48 hours): 4.33; IC50 (BT474 cells; BT474, 48 hours, crystal violet, read-out: IC50 cellular viability): 3.3 µM; IC50 (BT474 cells; BT474 Parental, read-out: IC50 crystal violet): 3.3 µM; slope of the line (relative number of cells in relation to time) (non malignant cells (BJ); 0-15 h, 1 μM): 1.14; slope of the line (relative number of cells in relation to time) (non malignant cells (BJ); 0-15 h, 2 μM): 1.07; slope of the line (relative number of cells in relation to time) (non malignant cells (BJ); 0-15 h, 5 μM): 0.83; slope of the line (relative number of cells in relation to time) (non malignant cells (BJ); 0-36 h, 1 μM): 1.08; slope of the line (relative number of cells in relation to time) (non malignant cells (BJ); 0-36 h, 2 μM): 0.90; slope of the line (relative number of cells in relation to time) (non malignant cells (BJ); 0-36 h, 5 μM): 0.47; effect on cellular proliferation of non-malignant BJ cells, in words (non malignant cells (BJ); Xcelligence, 5 μM): very mild and statistically non-significant effect; effect on relative tumor growth, in words ([5]; 4T1, 8 mg/kg): significantly reduces relative tumor growth; Relative tumor size ([5]; Day 0): 1.0; Relative tumor size ([5]; Day 4): 1.3; Relative tumor size ([5]; Day 7): 1.1; Relative tumor size ([5]; Day 11): 1.4; Relative tumor size ([5]; Day 14): 1.6; Relative tumor size ([5]; Day 18): 2.5
